Molecules are shown by their SMILES. Several values for one entry are separate records, joined by “and”; a condition that tells them apart may be missing. Equal values may be shown once.

This experiment concerns NAD and NADP in whole blood. The following applies: hypercholesterolemia subjects, 750 mg of niacin twice daily for two months.

Description: The term niacin number has been chosen as a convenient way to represent niacin status and is defined as the ratio of the concentration of NAD to the concentration of NADP multiplied by 100 (100·[NAD]/[NADP]) in whole blood. For example, if the relative concentration of NADP([NADP]) is 1 and the relative concentration of NAD([NAD]) is 0.72, the niacin number would be 72 (from the formula 100·[NAD]/[NADP]=72 wherein [NAD] is 0.72 and [NADP] is 1). Expressing the values in this way yields a whole number that is linearly related to intracellular NAD content of red blood cells.

As for `O=C(O)c1cccnc1` [niacin, pyridine 3-carboxylic acid], under “pretherapy mean 175”, the Mean niacin number is 665 and 665 ± 115. In addition, the “Range observed (niacin number)” value (pretherapy range 131-242) is reported as 517-746.

Source of the values: patent publication US6428972B2, “Biochemical method to measure niacin status in a biological sample” (Niadyne, Inc., priority 1998, dated 2002).
